For test [1], the target named is Sodium-dependent dopamine transporter (Rattus norvegicus, UniProt P23977). Put plainly: The compound was tested for its affinity at the rat striatal dopamine transporter by the displacement of [3H]WIN-35428. A general note: Displacement assays read how much labelled ligand stays bound in the presence of the test substance.
Test [2] is described as follows: Hill coefficient was determined.
The nature of test [3]: Ratio of inhibitory concentration of compound 5d to 6d.

Consider ten compounds from ChEMBL document CHEMBL1129927, “Further evidence for a dopamine reuptake pharmacophore. The effect of N-methylation on Threo-methylphenidate and its analogs” (Bioorg Med Chem Lett, 1997).

Sequence of Sodium-dependent dopamine transporter (P23977 whole entry): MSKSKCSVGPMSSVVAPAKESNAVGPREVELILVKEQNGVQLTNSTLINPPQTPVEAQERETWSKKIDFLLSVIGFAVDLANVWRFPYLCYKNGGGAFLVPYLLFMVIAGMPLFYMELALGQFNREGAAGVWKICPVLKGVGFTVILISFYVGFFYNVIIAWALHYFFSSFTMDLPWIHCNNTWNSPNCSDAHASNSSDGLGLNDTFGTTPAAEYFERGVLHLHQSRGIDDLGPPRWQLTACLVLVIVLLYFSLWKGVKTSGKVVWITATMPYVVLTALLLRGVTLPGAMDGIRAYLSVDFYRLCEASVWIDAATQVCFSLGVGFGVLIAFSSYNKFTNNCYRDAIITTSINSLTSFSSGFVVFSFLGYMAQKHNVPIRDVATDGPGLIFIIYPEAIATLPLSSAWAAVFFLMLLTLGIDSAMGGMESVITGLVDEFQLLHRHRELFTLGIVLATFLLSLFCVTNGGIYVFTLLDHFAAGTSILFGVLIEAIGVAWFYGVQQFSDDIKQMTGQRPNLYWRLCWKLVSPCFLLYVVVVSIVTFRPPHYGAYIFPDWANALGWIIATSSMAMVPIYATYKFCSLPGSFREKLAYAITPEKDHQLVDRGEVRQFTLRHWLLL

Take `COC(=O)[C@H](c1ccccc1)[C@H]1CCCCN1C`: the IC50 (commonly the concentration that inhibits the measured activity by half) in test [1] was determined as 500 nM. For the same compound, in test [2], the Hill coefficient (usually a measure of the steepness of the concentration-response curve) stood at 1.

In test [1], `COC(=O)[C@H](c1cccc(Cl)c1)C1CCCCN1` (stereo not given in full) came in with an IC50 of 5.1 nM. Further, the Hill coefficient in test [2] is 0.95.

Consider `COC(=O)[C@H](c1ccc(C)cc1)C1CCCCN1` (stereo not given in full), for which the IC50 in test [1] was 33 nM. In test [2], this compound came in with a Hill coefficient of 1.05. Besides, the Ratio in test [3] was 4.2.

`COC(=O)[C@H](c1ccc(C)cc1)[C@H]1CCCCN1C`: in test [1], the 50% inhibitory concentration (IC50) was 139 nM. The compound also registered a Hill coefficient in test [2] of 1.03.

The compound `COC(=O)[C@H](c1ccc(O)cc1)[C@H]1CCCCN1` displayed an IC50 in test [1] of 98 nM. Further, the Hill coefficient in test [2] worked out at 1.07.

Compound `COC(=O)[C@H](c1cccc(C)c1)[C@H]1CCCCN1` showed an IC50 in test [1] of 21.4 nM. For the same compound, in test [2], the Hill coefficient amounted to 1.01.

Take `COC(=O)[C@H](c1ccccc1)[C@H]1CCCCN1`: the Hill coefficient in test [2] stood at 0.9.

In the case of `COC(=O)[C@H](c1cccc(C)c1)[C@H]1CCCCN1C`, the IC50 in test [1] came out at 108 nM. In test [2], this compound gave a Hill coefficient of 1.

Take `COC(=O)[C@H](c1cccc(Cl)c1)[C@H]1CCCCN1C`: the IC50 in test [1] was 161 nM. This compound also returned a Hill coefficient in test [2] of 0.96.

Turning to `COC(=O)[C@H](c1ccc(O)cc1)[C@H]1CCCCN1C`, the IC50 in test [1] turned out to be 1220 nM. The compound further had a Hill coefficient in test [2] of 1.06.
